Measurements: ChEMBL document CHEMBL2406903, “FPRL-1 Receptor Modulators May Provide Treatment for Inflammation” (ACS Med Chem Lett, 2013)

target: T1, N-formyl peptide receptor 2 (Homo sapiens) (UniProt P25090); experiment: Modulation of FPRL1 (unknown origin) expressed in CHO-Ga16 cells assessed as induction of calcium activity at 0.61 to 10000 nM by FLIPR assay relative to control; assay type: functional, cell-based
T1 sequence (whole entry): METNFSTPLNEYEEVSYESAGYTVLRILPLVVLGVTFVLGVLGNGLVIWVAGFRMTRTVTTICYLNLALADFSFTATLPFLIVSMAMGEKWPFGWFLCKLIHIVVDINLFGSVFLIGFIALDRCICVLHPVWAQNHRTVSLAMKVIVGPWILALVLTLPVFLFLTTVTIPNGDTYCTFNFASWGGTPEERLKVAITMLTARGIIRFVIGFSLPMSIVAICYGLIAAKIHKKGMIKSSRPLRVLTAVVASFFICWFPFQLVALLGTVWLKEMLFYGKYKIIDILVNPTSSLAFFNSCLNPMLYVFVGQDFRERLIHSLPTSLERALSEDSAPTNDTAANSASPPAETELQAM

Question: Which fold change (FC) does the source give for `CC(C)C[C@H](NC(=O)Nc1ccc(C(F)(F)F)cc1)C(=O)NC(C)(C)C(=O)O` here?
Answer: 0.92

Question: With `CC(C)C[C@H](NC(=O)Nc1ccc(Br)cc1)C(=O)NC(C)(C)C(=O)O` as the compound, how does the fold change (FC) read?
Answer: 0.96

Question: With `CC[C@@H](C)[C@@H](NC(=O)Nc1ccc(Br)cc1)C(=O)NCC(=O)O` as the compound, how does the fold change (FC) read?
Answer: 0.45
